{
  "source": "patent US20150080252A1",
  "about": "(Fox Chase Cancer Center, priority 2009, published 2015)",
  "origin": "cited, not measured here",
  "system": "metastatic and/or unresectable GIST",
  "note": "Structures can show the parent of a compound that is named as a salt.",
  "data": [
    {"smiles": "Cc1ccc(NC(=O)c2ccc(CN3CCN(C)CC3)cc2)cc1Nc1nccc(-c2cccnc2)n1", "note": "[IM, imatinib mesylate]", "values": [
      {"measurement": "patients with objective responses or stable disease", "setting": "metastatic and/or unresectable GIST", "value": "> 80", "unit": "%"},
      {"measurement": "median time to partial response (PR) (≧30% reduction)", "setting": "seminal phase II metastatic GIST study", "value": 16, "unit": "weeks"}
    ]}
  ]
}
